Results published in patent publication US20250319053A1, “INHIBITORS OF THE PEPTIDYL-PROLYL CIS/TRANS ISOMERASE (PIN1), COMBINATIONS AND USES THEREOF” (DANA-FARBER CANCER INSTITUTE, INC., priority 2021, published 2025).

System: patient-derived PDAC tumors in PDTX mice
Assay: Patient-derived tumor orthotopic xenograft (PDTX) mouse model
Type: in vivo
Excerpt: Allelic profiling of resulting KPC mice by the B6 panel (Jackson Laboratories) confirmed 129S1/SvImJ with average match of 84.2%, 129S4SvJae with average match of 83.8%, B6N with average match of 65.7% and B6J, with average match of 65.1%. 2) the KPC Genetically engineered mouse-derived orthotopic allografts (GDA) mouse model (Hingorani et al., Cancer Cell 7, 469-483 (2005); Li et al., Comput Struct Biotechnol J 17, 498-506 (2019)). Mouse PDAC cells were established from KPC mouse pancreatic tumor tissues, followed by orthotopically injecting 1×10^6 mouse PDAC cells in 50 μL Matrigel (356231, Coaning) into the pancreas of female 8 week-old syngeneic immunocompetent C57BL/6 mice (Jackson Laboratories). 3) PDAC Patient-derived Tumor orthotopic xenografted (PDTX) mouse model (Gilles et al., Clin Cancer Res 24, 1734-1747 (2018); Rubio-Viqueira et al., Clin Cancer Res 12, 4652-4661 (2006)). PDAC PDX tumors were obtained from Dr. Muthuswamy and Dr. Hidalgo and divided into 4×2 mm pieces, followed by xenografting orthotopically into the pancreas of female 8-week-old immunodeficient NOD.Cg-Prkdc^scid Il12rg^tm1Wjl/SzJ (NOD scid gamma; NSG) mice (Jackson Laboratories). 4) PDAC Patient-derived Organoid and CAFs orthotopic xenograft (PDOX) mouse model (Dantes et al., JCI Insight 5, 137809 (2020); (Koikawa et al., Cancer letters 425, 65-77 (2018)). 5×10^4 patient derived PDAC organoids and 5×10^4 patient derived CAFs in 50 μL of Matrigel were injected orthotopically into the pancreas of female 8 week-old immunodeficient NSG mice (Jackson Laboratories).
Briefly, all mice were randomly selected to receive treatments groups. Tumor sizes were measured by weekly palpation with electronic caliper or ultrasound, and when tumors were reached >0.5 cm, the treatment was started. Briefly, animals were placed under general anesthesia with 2%-3% isoflurane once a week. Under general anesthesia, the abdominal wall became very flaccid, and the muscle tone of the mouse was very low. The mouse was scuffed with the left hand to allow for palpation and measurement with the right hand. This allowed to detect the firm pancreatic mass by palpation, and to determine its size by electronic caliper measurements. […] In the GDA model and PDX models, palpable tumors predictably were detectable within 4-7 days post implantation. […] When the tumor by palpation after age 12 weeks could not be detected, the mice were monitored by ultrasound. Once the maximum length >0.5 cm tumor was detected, the mice were randomized to treatment, and then followed tumor growth by electronic caliper measurement. To validate the external caliper measurements, the tumor size was measured prior to euthanization of the mice and then measured the actual tumor size upon necropsy to ascertain concordance. […]

Row | Structure (SMILES) | Median survival (PDTX mice, FIG. 8M, GEM 20 mg/kg, n=6, vehicle 36 days) [days] | CAF activation (IF for αSMA or PDGFRα) (PDTX mice, 4 weeks) | collagen deposition (Sirius Red staining) (PDTX mice, 4 weeks) | tumor growth (overt tumor-bearing PDTX mice, 4 weeks)
1 | Nc1ccn([C@@H]2O[C@H](CO)[C@@H](O)C2(F)F)c(=O)n1 [GEM, gemcitabine, reference compound] | 42.5 |  |  | 
2 | CC(C)(C)CN(C(=O)CCl)C1CCS(=O)(=O)C1 (stereo not shown) [Pin1i−2, sulfopin] |  | significantly reduced | significantly reduced | significantly reduced tumor growth
